Experiment [1] deals with breast (MCF-7) and colon cancer (HCT116) cell lines. It counts as cell-based, human. The conditions noted are these: for survival rate / decline in the cell growth: 48 h; for survival rate: cell line not stated; for decline in the cell growth: 40 μg/ml, both cell lines; for growth: 72 h incubation, high concentration for cathelicidin-2 and -3, breast and colon cancer cell lines. As to the method:
(§1) The breast (MCF-7) and colon cancer (HCT116) cell lines were purchased from the American Type Culture Collection (Manassas, Va., USA) and maintained at 37° C. in a 1:1 mixture of Dulbecco's modified Eagle's medium DMEM high glucose (4.5 g/L) supplemented with 10% FBS in Corning®T75 flasks containing 1.2 g/l sodium bicarbonate (Sigma-Aldrich, St. Louis, Mo., USA), 2.5 mM L-glutamine (Invitrogen Life Technologies), 15 mM HEPES, and 0.5 mM sodium pyruvate supplemented with 400 ng/ml hydrocortisone (Sigma-Aldrich) and 10% fetal bovine serum (PAA Laboratories, Pasching, Austria) in a humidity incubator with 5% CO2 and 95% air. The culture medium was refreshed every 2-3 days for a period of 5-7 days to allow for recovery from cryopreservation and for confluency to be reached. For cell subculturing, the cells were digested with 0.25% trypsin and 0.03% EDTA solution (Invitrogen Life Technologies). Upon reaching 90% confluency, cell numbers were counted. The density of cells was 5 λ103 cells/cm^2. After that, the MCF-7 cells were seeded into three 96 well plates and treated with three chicken cathelicidins peptides for three period of incubations (24 h-48 h-72 h) (Li et al., 2014).
(§2) To assess the altered cell viability, Cell Counting Kit-8 (CCK-8) assay (Dojindo Laboratories, Kumamoto, Japan) was performed. Briefly, the cells were seeded in 96-well plates at 5×10^3 cells/well containing 180 μl of medium and cultured for up to 72 h. At the end of each experiment, 5 μl of CCk-8 solution (5 mg/ml) was added into each well, and the cells were incubated for 2 h at 37° C. The optical density value was measured by using BioTek microplate reader (Dynatech Laboratories Inc., Chantilly, Va., USA) at 450 nm. The median inhibition concentration (IC50) values were calculated using the probity model, and the inhibition rate of cell proliferation was calculated as: inhibition rate (%)=1−A450 (test)/A450 (control)×100%. Data were calculated from three independent experiments, each performed in triplicate (Li et al., 2014).

Experiment [2] has as its system breast cancer cells (MCF-7). As to the kind of experiment: Cell viability assay (CCK-8), MCF-7. Format: cell-based, human. As to conditions: 72 h. As to the method:
as §1, §2

Experiment [3] relates to human colon cancer cell line (HCT116). Put plainly: Cell viability assay (CCK-8), HCT116. It counts as cell-based. As to conditions: 72 h. As to the method: as §1, §2
The subject of experiment [4] is Caspase-3 gene. Put plainly: Expression of caspase-3 gene in MCF-7 cells (RT-PCR). Format: cell-based, human. As to the method:
(§3) Total RNA was isolated from MCF-7 cells after chicken cathelicidins treatment using EZ RNA Clean Up Plus DNase Kit (EZ BioResearch, St Louis, Mo., USA)) following the manufacturer's instructions. RT-PCR was performed by using 1 μg of total RNA samples in the Access RT-PCR System (Bioneer Corporation Co., Ltd, South Korea) under the following conditions: first-strand DNA was synthesized with 12 cycles at 37° C. for 10 sec, 48° C. for 4 min and 60° C. for 30 sec and finally, heat inactivation at 95° C. for 5 mins then denatured at 94° C. for 5 min for the first cycle but for 30 sec for the additional 35 cycles; annealing according to Table 2 for 30 sec and extension at 72° C. for 2 min; and a final extension at 72° C. for 10 min. The PCR products were then subjected to electrophoresis in a 1.2% agarose gel and stained with ethidium bromide.
(§4) For RT-qPCR, cDNA was synthesized by using 0.5 μg of total RNA with a SuperScriptIII® Cells Direct cDNA Synthesis kit (Bioneer, Inc, Daejeon, Republic of Korea). The levels of IL-18, cyclin D1, cyclin A1, caspase-3 and 7 mRNA were amplified in triplicate using the SYBR-Green® Real-time PCR master mix (Biotool LLC, Houston, Tex., USA) on a LightCycler®480 Real-Time PCR system (Roche, Basel, Switzerland). […] The relative levels of gene expression were quantified by using the comparative CT method of ^−ΔΔCt (Livak and Schmittgen, 2001).

Experiment [5] concerns Caspase-7 gene. Put plainly: Expression of caspase-7 gene in MCF-7 cells (RT-PCR). Format: cell-based, human. As to the method: as §3, §4
The mark [6] stands for this setting: moderate concentration (20 μg/ml).

Like-named read-outs stand apart in the source and are kept apart here. Ends that are not written are not given here.

Turning to `CC[C@H](C)[C@H](NC(=O)[C@H](CCCCN)NC(=O)[C@H](CCC(=O)O)NC(=O)[C@H](CCCCN)NC(=O)[C@H](CO)NC(=O)[C@H](CCCCN)NC(=O)[C@H](CCCNC(=N)N)NC(=O)[C@H](Cc1ccccc1)NC(=O)[C@H](Cc1ccccc1)NC(=O)[C@H](CC(=O)O)NC(=O)CNC(=O)[C@H](CC(C)C)NC(=O)[C@@H](N)CC(C)C)C(=O)NCC(=O)N[C@@H](CCCCN)C(=O)N[C@@H](CCC(=O)O)C(=O)N[C@@H](Cc1ccccc1)C(=O)N[C@@H](CCCCN)C(=O)N[C@@H](CCCNC(=N)N)C(=O)N[C@H](C(=O)N[C@H](C(=O)N[C@@H](CCC(N)=O)C(=O)N[C@@H](CCCNC(=N)N)C(=O)N[C@H](C(=O)N[C@@H](CCCCN)C(=O)N[C@@H](CC(=O)O)C(=O)N[C@@H](Cc1ccccc1)C(=O)N[C@@H](CC(C)C)C(=O)N[C@@H](CCCNC(=N)N)C(=O)N[C@@H](CC(N)=O)C(=O)N[C@@H](CC(C)C)C(=O)N[C@H](C(=O)N1CCC[C@H]1C(=O)N[C@@H](CCCNC(=N)N)C(=O)N[C@H](C(=O)N[C@@H](CCC(=O)O)C(=O)N[C@@H](CO)C(=O)O)[C@@H](C)O)C(C)C)[C@@H](C)CC)C(C)C)[C@@H](C)CC` [Cathelicidin-1], the survival rate in experiment [1] (low concentration (10 μg/ml)) amounted to 25%; in experiment [1] (moderate concentration (printed 10 μg/ml)), 12%.

On to “RVKRFWPLVPVAINTVAAGINLYKAIRRK [Cathelicidin-3]”, for which the development rate in experiment [2] (low concentration) was 73%; in experiment [2] (setting [6]), 73%; in experiment [3] (low concentration) it was 65%; in experiment [3] (setting [6]), 43.5%. Also, the “decline in the cell growth” value in experiment [1] is “about 7%”. Also, the growth in experiment [1] is listed as 16%. Moreover, the “caspase-3 gene expression relative to untreated cells” value in experiment [4] is given as “two times greater”. For the same compound, in experiment [5], the “caspase-7 gene expression relative to untreated cells” value is “two-fold”.

Take “RFGRFLRKIRRFRPKVTITIQGSARF [Cathelicidin-2]”: the development rate in experiment [2] (low concentration) stood at 72%; in experiment [2] (setting [6]) it was 44%; in experiment [3] (low concentration) it was 61.3%; in experiment [3] (setting [6]) it was 24%. Also, the “decline in the cell growth” value in experiment [1] is recorded as 10%. In experiment [1], this compound returned a growth of 7%. Also, the “caspase-3 gene expression relative to untreated cells” value in experiment [4] is “two times greater”. Also, the “caspase-7 gene expression relative to untreated cells” value in experiment [5] is on record as “two-fold”.

These data come from patent US11179438B1, “Chicken cathelicidins as a cancer therapy” (King Abdulaziz University, priority 2021, dated 2021).
